One assay addresses T1, HER-2 (Homo sapiens, UniProt P04626).
T1 construct: endogenous in cells; host or cells: Calu-3 (ATCC HTB-55)
Put plainly: Inhibition of HER-2 phosphorylation in Calu-3 tumor cell line. The format is cell-based. To be noted: Calu-3 cells, compound 1 μM, 16 h, pY 1248 in HER-2, percentage of DMSO control; for inhibition at 1 µM: read-out: Percent inhibition of HER2-phosphorylation (compound concentration 1 μM). The protocol:
Inhibition of HER-2 Phosphorylation in Calu-3 Tumor Cell Line
2×10^5 Calu-3 (ATTC HTB-55) cells per well were plated in a 12-well plate. After 4 days cells were starved for 16 h in Dulbecco's Modified Eagle Medium (DMEM)/0.5% Fetal Calf Serum (FCS)/1% Glutamine. During this 16 h period cells were incubated with a solution of the test compound in dimethylsulfoxide(DMSO), so that the final concentration of the compound is 1 μM and the final volume of DMSO is 0.5%. Afterwards cells were lysed in lyses buffer containing 1% Triton®X-100, 10% Glycerol, 1 mM Ethylene glycol-bis(2-aminoethylether)-N,N,N′,N′-tetraacetic acid (EGTA), 1.5 mM MgCl2, 150 mM NaCl, 50 mM 4-(2-hydroxyethyl)-1-piperazineethanesulfonic acid (HEPES) buffer pH 7.5, 1 mM Phenylmethylsulfonyl fluoride (PMSF), 10 ∥g/mL Aprotinin and […] Orthovanadate. Cell lysates were analyzed on a Sodium Dodecyl Sulfate Polyacrylamide Gel Electrophoresis (SDS PAGE) and after transfer to a nitrocellulose membrane detected with an antibody specifically recognizing the pY 1248 in HER-2. Inhibition of HER-2 phosphorylation is calculated as percentage of the control, which is treated with DMSO only.

Another assay concerns HEK293 cells. Description: Viability assay of HEK293 cells (CellTiter-Glo). The format is cell-based. The conditions noted are these: Homo sapiens, 168 h, 7 days, 3 μM to 0.00015 μM, luminescence. The procedure:
Viability Assay of HEK293 Cells
A viability assay was performed using the CellTiter-Glo™ Luminescent Cell Viability Assay (see Promega Corporation's Technical Publication No. 288, pp. 1-11 [revised 2.04] which is hereby incorporated by reference in its entirety). This assay is a homogeneous method of determining the number of viable cells in culture based on quantitation of the ATP present, which signals the presence of metabolically active cells. The assay is designed for use with multiwell formats, making it ideal for automated high-throughput screening (HTS), cell proliferation and cytotoxicity assays. The homogeneous assay procedure involves adding a single reagent (containing luciferase, luciferan substrate, and buffer) directly to cells cultured in serum-supplemented medium. Cell washing, removal of medium and multiple pipetting steps are not required. The system detects as few as 15 cells/well in a 384-well format in 10 minutes after adding reagent and mixing.
The homogeneous “add-mix-measure” format results in cell lysis and generation of a luminescent signal proportional to the amount of ATP present. The amount of ATP is directly proportional to the number of cells present in culture. The above-referenced assay generates a “glow-type” luminescent signal, produced by the luciferase reaction, which has a half-life generally greater than five hours, depending on cell type and medium used. The extended half-life eliminates the need to use reagent injectors and provides flexibility for continuous or batch mode processing of multiple plates. The unique homogeneous format avoids errors that may be introduced by other ATP measurement methods that require multiple steps.
HEK293 cells (human embryonic kidney cell line transformed by Adenovirus 5 fragments, ATCC-No. CRL 1573) were cultivated in Dulbecco's Modified Eagle Medium (DMEM) (1×) liquid (high glucose) (which includes L-Alanyl-L-Glutamine [a stabilized a form of L-Glutamine], 4500 mg/L glucose, and 110 mg/L sodium pyruvate) from Invitrogen Corporation (Invitrogen Catalog Number 31966-021 [now 10569-010] which is hereby incorporated by reference in its entirety), 5% Fetal Calf Serum (FCS, Sigma Cat-No. F4135 (FBS) which is hereby incorporated by reference in its entirety), and 100 Units/ml penicillin/100 μg/ml streptomycin(=Pen/Strep from Invitrogen Cat. No. 15140 which is hereby incorporated by reference in its entirety). For the assay the cells were seeded in 384 well plates, 5000 cells per well, in the same medium. The next day the test compounds were added in various concentrations ranging from 3 μM to 0.00015 μM (10 concentrations, 1:3 diluted). After 7 days the above viability assay was performed in accordance with the following steps: • Step 1: The cell-plate was equilibrated to room temperature for approximately 30 minutes and than the assay reagent was added. • Step 2: The contents were carefully mixed for 15 minutes to induce cell lysis. • Step 3: After 45 minutes the luminescent signal was measured in Victor 2, (scanning multiwell spectrophotometer, Wallac). Details: 1st Day: • Medium: Dulbecco's Modified Eagle Medium (DMEM) (1×) liquid (high glucose) (which includes L-Alanyl-L-Glutamine [a stabilized a form/source of L-Glutamine], 4500 mg/L glucose, and 110 mg/L sodium pyruvate) from Invitrogen Corporation (Invitrogen Catalog Number 31966-021 [now 10569-010]), 5% Fetal Calf Serum (FCS, Sigma Cat-No. F4135 (FBS)), and Pen/Strep (Invitrogen Cat. No. 15140). • HEK293 (ATCC-No. CRL 1573): 5000 cells in 60 μl per well of 384 well plate. (Greiner 781098, white plates) • Incubate 24 h at 37° C., 5% CO2 2nd Day: Induction (Substance Testing):
In general the dilution steeps are 1:3 a) Add 8 μl of 10 mM stock solution of compound to 72 μl DMSO b) dilute 9×1:3 (always 30 μl to 60 μl DMSO) in this DMSO dilution row (results in 10 wells with concentrations from 1000 μM to 0.06 μM) c) dilute each concentration 1: 4.8 (10 μl compound dilution to 38 μl medium) […]
A general note: ATP-based viability assays read luminescence as a measure of living cells.

Molecules are shown by their SMILES. pIC50: −log10 of the molar value.

The values below come from US20060116407A1, “Amide derivatives” (priority 2004, published 2006).

T1 sequence (P04626 23-1255): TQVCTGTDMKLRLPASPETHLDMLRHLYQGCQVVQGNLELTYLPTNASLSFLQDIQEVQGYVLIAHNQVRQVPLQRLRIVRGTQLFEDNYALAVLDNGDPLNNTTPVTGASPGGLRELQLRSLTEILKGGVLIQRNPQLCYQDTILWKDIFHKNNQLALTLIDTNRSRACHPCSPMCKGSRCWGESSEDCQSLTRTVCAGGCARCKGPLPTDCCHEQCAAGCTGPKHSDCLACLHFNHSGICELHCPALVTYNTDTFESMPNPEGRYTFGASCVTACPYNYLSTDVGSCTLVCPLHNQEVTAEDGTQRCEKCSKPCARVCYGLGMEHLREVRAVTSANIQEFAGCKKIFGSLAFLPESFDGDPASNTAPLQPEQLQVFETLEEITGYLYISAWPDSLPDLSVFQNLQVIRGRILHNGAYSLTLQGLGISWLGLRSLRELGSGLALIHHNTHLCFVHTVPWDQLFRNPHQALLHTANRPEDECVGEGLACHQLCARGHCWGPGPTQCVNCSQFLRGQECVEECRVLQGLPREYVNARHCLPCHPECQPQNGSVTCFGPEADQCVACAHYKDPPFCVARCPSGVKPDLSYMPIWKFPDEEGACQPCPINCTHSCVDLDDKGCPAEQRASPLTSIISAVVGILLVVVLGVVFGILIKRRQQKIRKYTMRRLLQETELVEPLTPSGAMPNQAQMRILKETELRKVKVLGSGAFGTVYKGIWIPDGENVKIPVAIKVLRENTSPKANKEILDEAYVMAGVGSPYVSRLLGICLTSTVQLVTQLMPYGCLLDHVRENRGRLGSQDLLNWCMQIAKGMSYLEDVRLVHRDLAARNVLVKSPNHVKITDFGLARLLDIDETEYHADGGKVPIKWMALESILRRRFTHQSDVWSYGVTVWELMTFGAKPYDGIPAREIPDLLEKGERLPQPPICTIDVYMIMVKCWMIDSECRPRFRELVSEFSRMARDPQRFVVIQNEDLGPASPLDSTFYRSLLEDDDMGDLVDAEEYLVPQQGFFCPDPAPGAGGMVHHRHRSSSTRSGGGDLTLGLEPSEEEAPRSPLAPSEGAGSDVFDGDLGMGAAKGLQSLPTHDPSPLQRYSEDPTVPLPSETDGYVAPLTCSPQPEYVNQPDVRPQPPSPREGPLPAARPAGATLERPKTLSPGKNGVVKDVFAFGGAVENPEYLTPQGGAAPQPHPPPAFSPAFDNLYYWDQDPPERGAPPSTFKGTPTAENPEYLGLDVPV

As for `O=C(Nc1ccc(SC(F)(F)F)cc1)c1coc(COc2ccc(CCCCn3ccnn3)cc2)n1` [Example 11, 2-[4-(4-[1,2,3]Triazol-1-yl-butyl)-phenoxymethyl]-oxazole-4-carboxylic acid (4-trifluoro-methylsulfanyl-phenyl)-amide], on HER-2, the “Percent inhibition of HER2-phosphorylation (compound concentration 1 μM)” value is 69%.
Consider `O=C(Nc1ccc2c(c1)OC(F)(F)O2)c1coc(COc2ccc(CCCCn3ccnn3)cc2)n1` [Example 9, 2-[4-(4-[1,2,3]Triazol-1-yl-butyl)-phenoxymethyl]-oxazole-4-carboxylic acid (2,2-difluoro-benzo [1,3]dioxol-5-yl)-amide], for which, on HER-2, the inhibition at 1 µM was 55 to 70%. This compound showed a negative logarithm of the IC50 (pIC50) in the assay on HEK293 cells of 6.94.
Taken in the same sequence, the figures for `Cc1ccc(NC(=O)c2coc(COc3ccc(CCCCn4ccnn4)cc3)n2)cc1F` [Example 36, 2-[4-(4-[1,2,3]Triazol-1-yl-butyl)-phenoxymethyl]-oxazole-4-carboxylic acid (3-fluoro-4-methyl-phenyl)-amide] were 70 to 80% and 6.30 to 8.30.
Consider `FC(F)(F)c1ccc(C=Cc2nc(COc3ccc(CCCCn4ccnn4)cc3)co2)cc1` [reference compound, 1-[4-(4-{2-[2-(4-Trifluoromethyl-phenyl)-vinyl]-oxazol-4-ylmethoxy}-phenyl)-butyl]-1H-[1,2,3]triazole, reference compound], for which, on HER-2, the inhibition at 1 µM amounted to 52%.
As to `O=C(Nc1ccc(OC(F)(F)F)cc1)c1csc(COc2ccc(CCCCn3ccnn3)cc2)n1` [Example 43, 2-[4-(4-[1,2,3]Triazol-1-yl-butyl)-phenoxymethyl]-thiazole-4-carboxylic acid (4-trifluoromethoxy-phenyl)-amide], the inhibition at 1 µM at HER-2 was greater than 80%. In the assay with HEK293 cells, this compound had a negative-log IC50 (pIC50) of 5.52 to 6.30.
For `O=C(Nc1ccc(Cl)cc1F)c1coc(COc2ccc(CCCCn3ccnn3)cc2)n1` [Example 14, 2-[4-(4-[1,2,3]Triazol-1-yl-butyl)-phenoxymethyl]-oxazole-4-carboxylic acid (4-chloro-2-fluoro-phenyl)-amide], in that order: 72% and 5.52 to 6.30.
For `O=C(Nc1ccc(F)cc1)c1coc(COc2ccc(CCCCn3ccnn3)cc2)n1` [Example 31, 2-[4-(4-[1,2,3]Triazol-1-yl-butyl)-phenoxymethyl]-oxazole-4-carboxylic acid (4-fluoro-phenyl)-amide], in that order: 55 to 70% and 5.52 to 6.30.
In the case of `COc1ccc(NC(=O)c2coc(COc3ccc(CCCCn4ccnn4)cc3)n2)cc1` [Example 37, 2-[4-(4-[1,2,3]Triazol-1-yl-butyl)-phenoxymethyl]-oxazole-4-carboxylic acid (4-methoxy-phenyl)-amide], the inhibition at 1 µM at HER-2 lay within 70 to 80%.
As for `O=C(Nc1ccc(OC(F)(F)F)cc1)c1coc(COc2ccc(CCCCn3ccnn3)cc2)n1` [Example 10, 2-[4-(4-[1,2,3]Triazol-1-yl-butyl)-phenoxymethyl]-oxazole-4-carboxylic acid (4-trifluoro-methoxy-phenyl)-amide], on HER-2, the “Percent inhibition of HER2-phosphorylation (compound concentration 1 μM)” value was determined as 75%.
For `O=C(Nc1nc(COc2ccc(CCCCn3ccnn3)cc2)cs1)c1cc(F)cc(F)c1` [Example 52-23, 3,5-Difluoro-N-{4-[4-(4-[1,2,3]triazol-1-yl-butyl)-phenoxymethyl]-thiazol-2-yl}-benzamide], the negative logarithm of the IC50 (pIC50) with HEK293 cells was 6.30 to 8.30.
`Cc1cc(F)ccc1NC(=O)c1coc(COc2ccc(CCCCn3ccnn3)cc2)n1` [Example 25, 2-[4-(4-[1,2,3]Triazol-1-yl-butyl)-phenoxymethyl]-oxazole-4-carboxylic acid (4-fluoro-2-methyl-phenyl)-amide] had a pIC50 in the assay with HEK293 cells of 6.30 to 8.30.
In the case of `CN(C(=O)c1coc(COc2ccc(CCCCn3ccnn3)cc2)n1)c1ccc(Cl)cc1` [Example 2, 2-[4-(4-[1,2,3]Triazol-1-yl-butyl)-phenoxymethyl]-oxazole-4-carboxylic acid (4-chloro-phenyl)-methyl-amide], the inhibition at 1 µM at HER-2 was 55 to 70%.
`O=C(Nc1nc(COc2ccc(CCCCn3ccnn3)cc2)cs1)c1ccc(Cl)c(F)c1` [Example 52-6, 4-Chloro-3-fluoro-N-{4-[4-(4-[1,2,3]triazol-1-yl-butyl)-phenoxymethyl]-thiazol-2-yl}-benzamide] had a pIC50 in the assay on HEK293 cells of 6.30 to 8.30.
The same measure, in the same setting: the figure for `O=C(Nc1nc(COc2ccc(CCCCn3ccnn3)cc2)cs1)c1ccc(Cl)c(Cl)c1` [Example 52-9, 3,4-Dichloro-N-{4-[4-(4-[1,2,3]triazol-1-yl-butyl)-phenoxymethyl]-thiazol-2-yl}-benzamide] is 6.30 to 8.30.
On the same count and under the same terms, next, `CSc1ccc(NC(=O)c2coc(COc3ccc(CCCCn4ccnn4)cc3)n2)cc1` [Example 24, 2-[4-(4-[1,2,3]Triazol-1-yl-butyl)-phenoxymethyl]-oxazole-4-carboxylic acid (4-methylsulfanyl-phenyl)-amide]: 5.97.
Same read-out and setting: the figure for `O=C(Nc1nc(COc2ccc(CCCCn3ccnn3)cc2)cs1)c1cccc(F)c1` [Example 52-25, 3-Fluoro-N-{4-[4-(4-[1,2,3]triazol-1-yl-butyl)-phenoxymethyl]-thiazol-2-yl}-benzamide] is 6.30 to 8.30; for `Cc1ccc(NC(=O)c2coc(COc3ccc(CCCCn4ccnn4)cc3)n2)cc1` [Example 28, 2-[4-(4-[1,2,3]Triazol-1-yl-butyl)-phenoxymethyl]-oxazole-4-carboxylic acid p-tolylamide] it is 5.52 to 6.30.
Regarding `O=C(Nc1nc(COc2ccc(CCCCn3ccnn3)cc2)cs1)c1ccc(SC(F)(F)F)cc1` [Example 52-7, N-{4-[4-(4-[1,2,3]Triazol-1-yl-butyl)-phenoxymethyl]-thiazol-2-yl}-4-trifluoromethylsulfanyl-benzamide], the pIC50 in the assay with HEK293 cells was 6.30 to 8.30.
For `O=C(Nc1ccc(OC(F)F)cc1)c1coc(COc2ccc(CCCCn3ccnn3)cc2)n1` [Example 22, 2-[4-(4-[1,2,3]Triazol-1-yl-butyl)-phenoxymethyl]-oxazole-4-carboxylic acid (4-difluoromethoxy-phenyl)-amide], at HER-2, the inhibition at 1 µM is 55 to 70%.
Regarding `O=C(Nc1ccc(Cl)cc1)c1coc(COc2ccc(CCCCn3ccnn3)cc2)n1` [Example 6, 2-[4-(4-[1,2,3]Triazol-1-yl-butyl)-phenoxymethyl]-oxazole-4-carboxylic acid (4-chloro-phenyl)-amide], the pIC50 in the assay with HEK293 cells was 5.52 to 6.30.

By pIC50 is commonly meant the negative decadic logarithm of the IC50, by convention in mol/L. Read a high pIC50 as a low IC50.
